Experimental data: ChEMBL document CHEMBL1201862, “PubChem BioAssay data set” (2004)
The source made the active and inactive calls.

What was measured:
[1] = decrease of insulin promoter-GFP reporter – imaging, high-content screening, mouse beta cells (AID 1628); assay type: functional; conditions: MIN6
[2] = MIN6 cell viability loss – mouse insulinoma, cytotoxicity control, dose response (AID 2122); assay type: functional;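 further: confirmatory high-throughput counterscreen run to flag cytotoxic compounds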
[3] = microbe, parasite or virus in culture; assay type: functional; conditions: Mycobacterium tuberculosis
[4] = general mammalian cell viability loss – inhibitor set, cherry-pick, set 2, cytotoxicity control for miR-122 modulator project, dose response (AID 720697); assay type: functional, cell-based
[5] = reduction of Shn3 3'UTR-driven luciferase in osteoblasts – cell-based, Clone20 osteoblasts, firefly luciferase, cherry-picked, dose response (AID 624132); assay type: functional;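 further: firefly luciferase luminescence from reporter carrying the Shn3 3'UTR in osteoblasts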
[6] = loss of viability in HepG2 cells – cell-based, CellTiter-Glo, cherry-picked, cytotoxicity control for Shn3 inhibitor project, dose response (AID 624134); assay type: functional
[7] = non-specific 3'UTR reporter inhibition in Clone20-Shn3RL – cell-based, Renilla luciferase, cherry-picked, counter-screen for Shn3 inhibitor project, dose response (AID 624133); assay type: functional
[8] = viability loss in human hepatoma cells – cell-based, CellTiter-Glo luminescence, cherry-pick, set 2, cytotoxicity control, dose response (AID 743395); assay type: functional
[9] = NIH-3T3 fibroblast cytotoxicity, dose response, cytotoxicity control, cell-based, fluorescence, Alamar Blue, secondary assay (AID 2327); assay type: functional;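 further: NIH-3T3 mouse fibroblasts cultured with fluconazole at 8 µg/mL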
[10] = fluconazole-exposed Candida albicans growth modulators – fluorescence, retest, confirmation (AID 2467); assay type: functional, cell-based
[11] = Trypanosoma cruzi growth suppression in host cells – NIH3T3 host cells, beta-gal luminescence, confirmation (AID 2044); assay type: functional, cell-based;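 further: intracellular parasites grown in NIH/3T3 mouse fibroblasts as host cells; luminescent beta-galactosidase reporter signal from transgenic T. cruzi replicating inside host cells; inhibitors lower the luminescence signal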
[12] = NIH3T3 cell viability loss – ATP luminescence, mouse fibroblasts, counter-screen, dose response (AID 2010); assay type: functional, cell-based;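 further: cells exposed to compound for about 90 hours before reading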
[13] = blockers of HIV-1 envelope-mediated cell-cell fusion – cherry-pick, dose response (AID 652057); assay type: functional, cell-based
[14] = viability loss in CEM21 cells – cell-based, CellTiter-Glo luminescence, cherry-picked, cytotoxicity control for viral fusion inhibitor project, dose response (AID 652042); assay type: functional;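 further: potency for signal decrease meaning cytotoxicity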
[15] = blockers of HIV-1 ZM109 envelope-driven cell-cell fusion – HeLa effector, CEM target cells, luciferase, cherry-pick, dose response (AID 652058); assay type: functional, cell-based;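 further: luciferase signal from HIV-1 Env mediated cell-cell fusion of effector and target cells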
[16] = off-target signal loss in HeLa-CEM21 co-culture – HeLa F-luc CTL cells, cherry-picked, counter-screen for HIV-1 Env fusion inhibitor project, dose response (AID 652040); assay type: functional, cell-based;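 further: potency for signal decrease marking cytotoxic or nonspecific inhibition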
[17] = HIV-1 AD8 envelope cell-cell fusion blockers – cherry-pick, dose response (AID 652062); assay type: functional, cell-based;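 further: luciferase signal from cell-cell fusion driven by HIV-1 clade B AD8 Env; potency is for inhibitors of fusion seen as a drop in luminescence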
[18] = target: Metabotropic glutamate receptor 5 (Rattus norvegicus, UniProt P31424); assay: Identification of a glycine sulfonamide based non-MPEP site positive allosteric potentiator (PAM) of mGlu5 (calcium_assay).; assay type: functional
Chain of Metabotropic glutamate receptor 5 (P31424 whole entry): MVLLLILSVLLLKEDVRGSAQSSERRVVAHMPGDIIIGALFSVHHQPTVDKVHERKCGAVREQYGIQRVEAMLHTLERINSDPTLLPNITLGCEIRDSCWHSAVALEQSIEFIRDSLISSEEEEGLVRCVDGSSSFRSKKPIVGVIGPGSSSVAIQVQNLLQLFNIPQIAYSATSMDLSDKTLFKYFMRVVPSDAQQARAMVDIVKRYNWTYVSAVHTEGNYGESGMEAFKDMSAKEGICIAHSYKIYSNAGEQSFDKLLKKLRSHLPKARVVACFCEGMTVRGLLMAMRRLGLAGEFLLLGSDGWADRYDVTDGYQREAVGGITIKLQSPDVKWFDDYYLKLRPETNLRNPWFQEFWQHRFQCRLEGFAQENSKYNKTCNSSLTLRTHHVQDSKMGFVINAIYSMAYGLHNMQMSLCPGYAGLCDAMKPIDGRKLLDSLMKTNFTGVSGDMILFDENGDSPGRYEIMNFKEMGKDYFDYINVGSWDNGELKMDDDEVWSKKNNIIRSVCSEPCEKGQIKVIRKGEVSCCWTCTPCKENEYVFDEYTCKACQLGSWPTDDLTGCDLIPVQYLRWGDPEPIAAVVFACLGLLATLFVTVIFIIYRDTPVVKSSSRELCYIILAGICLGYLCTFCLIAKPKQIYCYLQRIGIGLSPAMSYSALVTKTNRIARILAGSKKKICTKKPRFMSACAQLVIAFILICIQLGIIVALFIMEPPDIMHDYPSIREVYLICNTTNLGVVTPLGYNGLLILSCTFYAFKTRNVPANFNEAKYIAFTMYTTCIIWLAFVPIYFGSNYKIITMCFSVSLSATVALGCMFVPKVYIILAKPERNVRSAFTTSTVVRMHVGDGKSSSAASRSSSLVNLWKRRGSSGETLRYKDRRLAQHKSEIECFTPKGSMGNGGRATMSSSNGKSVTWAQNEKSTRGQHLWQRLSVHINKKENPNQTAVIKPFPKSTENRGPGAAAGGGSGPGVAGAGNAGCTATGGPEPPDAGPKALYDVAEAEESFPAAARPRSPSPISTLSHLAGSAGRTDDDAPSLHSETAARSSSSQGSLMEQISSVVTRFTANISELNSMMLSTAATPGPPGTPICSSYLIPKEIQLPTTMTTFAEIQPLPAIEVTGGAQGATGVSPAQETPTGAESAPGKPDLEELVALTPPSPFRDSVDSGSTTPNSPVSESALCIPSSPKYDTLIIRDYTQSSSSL

[19] = ATP-based viability loss in HEK293T cells – cell-based, CellTiter-Glo luminescence, cherry-picked samples, set 4, cytotoxicity control, dose response (AID 743441); assay type: functional; conditions: HEK293
HeLa = assay: viability loss in HeLa cells – cell-based, ATP luminescence, cherry-pick samples, cytotoxicity control, dose response (AID 687004); assay type: functional; conditions: Homo sapiens
Aminopeptidase N = target: T1, Aminopeptidase N (Plasmodium falciparum FcB1/Columbia, UniProt O96935); assay: malaria alanyl aminopeptidase activity blockers – biochemical, fluorogenic H-Leu-NHMec substrate, 1536-well (AID 1445); set-up: species or system Plasmodium falciparum 3D7, 3D7
T1 sequence (O96935 whole entry): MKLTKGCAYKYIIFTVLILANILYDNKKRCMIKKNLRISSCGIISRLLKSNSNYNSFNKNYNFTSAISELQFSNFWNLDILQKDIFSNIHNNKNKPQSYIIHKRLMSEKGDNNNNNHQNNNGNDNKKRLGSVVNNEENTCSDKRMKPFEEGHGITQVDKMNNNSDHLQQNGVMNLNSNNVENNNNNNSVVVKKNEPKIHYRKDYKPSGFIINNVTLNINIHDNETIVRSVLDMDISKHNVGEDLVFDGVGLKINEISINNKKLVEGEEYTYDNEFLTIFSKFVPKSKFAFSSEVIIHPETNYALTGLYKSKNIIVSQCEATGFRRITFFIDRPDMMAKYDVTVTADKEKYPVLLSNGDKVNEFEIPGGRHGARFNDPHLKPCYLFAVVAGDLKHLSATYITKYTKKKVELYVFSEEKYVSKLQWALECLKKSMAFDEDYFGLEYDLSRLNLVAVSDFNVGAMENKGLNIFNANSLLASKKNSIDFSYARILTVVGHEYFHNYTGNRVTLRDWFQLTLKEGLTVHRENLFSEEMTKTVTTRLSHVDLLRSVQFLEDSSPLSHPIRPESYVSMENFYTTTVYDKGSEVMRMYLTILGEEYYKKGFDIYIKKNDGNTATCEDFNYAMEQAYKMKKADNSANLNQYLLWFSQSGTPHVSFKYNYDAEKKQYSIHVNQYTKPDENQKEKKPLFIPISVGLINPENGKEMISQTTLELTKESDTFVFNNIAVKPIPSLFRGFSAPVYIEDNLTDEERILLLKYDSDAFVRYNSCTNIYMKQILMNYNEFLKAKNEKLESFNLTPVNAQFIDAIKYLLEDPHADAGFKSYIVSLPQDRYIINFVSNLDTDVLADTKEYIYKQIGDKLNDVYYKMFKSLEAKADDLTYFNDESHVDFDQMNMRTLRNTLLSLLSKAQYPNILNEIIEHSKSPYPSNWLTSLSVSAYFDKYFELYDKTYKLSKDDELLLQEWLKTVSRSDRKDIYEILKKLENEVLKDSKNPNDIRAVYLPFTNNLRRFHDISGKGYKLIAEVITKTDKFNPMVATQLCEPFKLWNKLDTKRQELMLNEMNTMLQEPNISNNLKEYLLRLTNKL

[20] = target: Endoplasmic reticulum aminopeptidase 1 (Homo sapiens, UniProt Q9NZ08); assay: inhibition of human ERAP1 enzyme activity – biochemical, cherry-pick, set 2, plate reader, dose response (AID 743314)
Chain of Endoplasmic reticulum aminopeptidase 1 (Q9NZ08 whole entry): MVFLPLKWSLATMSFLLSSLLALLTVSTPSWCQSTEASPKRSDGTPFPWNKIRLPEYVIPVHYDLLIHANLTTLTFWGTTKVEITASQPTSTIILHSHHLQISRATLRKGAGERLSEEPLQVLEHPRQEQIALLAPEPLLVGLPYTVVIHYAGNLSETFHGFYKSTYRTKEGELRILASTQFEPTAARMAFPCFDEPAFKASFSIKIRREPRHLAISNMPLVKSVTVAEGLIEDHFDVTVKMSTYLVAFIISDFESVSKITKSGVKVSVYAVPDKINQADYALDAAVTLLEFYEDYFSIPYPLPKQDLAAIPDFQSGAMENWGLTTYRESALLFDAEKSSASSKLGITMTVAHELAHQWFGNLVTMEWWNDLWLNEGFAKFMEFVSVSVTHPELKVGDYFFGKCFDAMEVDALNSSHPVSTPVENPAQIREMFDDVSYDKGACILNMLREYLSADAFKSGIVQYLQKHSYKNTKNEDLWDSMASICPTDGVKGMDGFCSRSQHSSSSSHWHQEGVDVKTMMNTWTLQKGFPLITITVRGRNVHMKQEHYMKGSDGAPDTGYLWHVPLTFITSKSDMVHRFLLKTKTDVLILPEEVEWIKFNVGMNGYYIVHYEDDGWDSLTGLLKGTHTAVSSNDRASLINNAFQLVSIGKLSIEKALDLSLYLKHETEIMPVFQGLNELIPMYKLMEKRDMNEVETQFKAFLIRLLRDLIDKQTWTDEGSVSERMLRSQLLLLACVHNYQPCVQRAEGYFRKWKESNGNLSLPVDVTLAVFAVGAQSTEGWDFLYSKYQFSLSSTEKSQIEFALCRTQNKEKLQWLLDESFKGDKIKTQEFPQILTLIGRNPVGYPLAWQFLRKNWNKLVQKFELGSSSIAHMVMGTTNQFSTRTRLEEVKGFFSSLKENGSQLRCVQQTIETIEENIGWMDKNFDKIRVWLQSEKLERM

Paired box protein Pax-8 = Paired box protein Pax-8 (Homo sapiens, UniProt Q06710); assay: PAX8 transcriptional activity inhibition in RMG-I – RMG-I cells, luciferase, cherry-pick, dose response (AID 687027); assay type: functional, cell-based;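 further: luciferase reporter driven by Pax8 target thyroperoxidase promoter measured by SteadyGlo luminescence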
Chain of Paired box protein Pax-8 (Q06710 whole entry): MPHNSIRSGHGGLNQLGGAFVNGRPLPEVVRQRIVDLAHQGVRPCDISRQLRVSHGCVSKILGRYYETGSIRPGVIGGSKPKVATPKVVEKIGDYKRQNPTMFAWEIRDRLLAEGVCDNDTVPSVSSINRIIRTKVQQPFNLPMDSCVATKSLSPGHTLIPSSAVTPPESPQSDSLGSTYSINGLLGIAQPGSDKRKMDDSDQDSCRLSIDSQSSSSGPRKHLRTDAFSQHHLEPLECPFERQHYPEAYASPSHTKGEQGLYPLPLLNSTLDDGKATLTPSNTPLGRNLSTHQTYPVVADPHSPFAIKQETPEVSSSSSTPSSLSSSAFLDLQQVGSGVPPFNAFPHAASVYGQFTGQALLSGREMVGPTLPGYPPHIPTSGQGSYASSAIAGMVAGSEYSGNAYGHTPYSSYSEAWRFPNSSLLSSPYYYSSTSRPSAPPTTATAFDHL

[21] = inhibitors acting on PAX2 in cells – cell-based, plate reader, dry powder samples, selectivity assay for PAX8 inhibitor project, dose response (AID 743048); assay type: functional;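 further: HEK293 cells carrying a WT1 promoter luciferase reporter driven by expressed Pax2; potency is for inhibition of Pax2 driven reporter signal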
[22] = COV362 cell viability loss – plate reader, dry powder, SA12, cytotoxicity control for PAX8 inhibitor project, dose response (AID 743144); assay type: functional, cell-based
[23] = PAX5 cellular inhibition readout – cell-based, plate reader, dry powder samples, selectivity assay for PAX8 inhibitor project, dose response (AID 743047); assay type: functional;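 further: HEK293 cells carrying a Pax5 driven CD19 promoter luciferase reporter; potency of inhibitors that lower reporter luminescence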
[24] = COV434 cell viability loss – plate reader, dry powder, SA7, cytotoxicity control for PAX8 inhibitor project, dose response (AID 743145); assay type: functional, cell-based
[25] = OV-90 cell viability loss – plate reader, dry powder, SA8, PAX8 inhibitor project, dose response (AID 743149); assay type: functional, cell-based
[26] = OVCAR8 cell viability loss – plate reader, dry powder samples, PAX8 project, dose response (AID 743197); assay type: functional, cell-based; conditions: OVCAR-8
[27] = PAX8-dependent cell viability loss – plate reader, dry powder, dose response (AID 743049); assay type: functional, cell-based
INS1 = assay: INS-1E survival protection against cytokine death – cell-based, luminescence, retest, dose response (AID 449756); assay type: functional; conditions: Rattus norvegicus;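 further: cell death triggered by IL-1 beta plus TNF-alpha plus IFN-gamma mixture; protective hits raise ATP signal compared with cytokine alone wells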
[28] = activation of miR-122 Renilla sensor silencing – cell-based, Huh7 psiCHECK-miR122, Renilla luciferase, cherry-picked, dose response (AID 651956); assay type: functional;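 further: huh7 hepatoma cells stably carrying a psiCHECK-2 miR-122 sensor plasmid; renilla luciferase signal reporting endogenous miR-122 activity after 48 h compound exposure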
[29] = general mammalian cell viability loss – activator set, cherry-pick, cytotoxicity control for miR-122 modulator project, dose response (AID 720690); assay type: functional, cell-based;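 further: HEK293T human cells scored for general mammalian cytotoxicity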
[30] = target: Delta-type opioid receptor (Homo sapiens, UniProt P41143); assay: Late-stage results from the probe development effort to identify antagonists of OPRK1: fluorescence-based cell-based dose response OPRD1 counterscreen.; assay type: functional
Chain of Delta-type opioid receptor (P41143 whole entry): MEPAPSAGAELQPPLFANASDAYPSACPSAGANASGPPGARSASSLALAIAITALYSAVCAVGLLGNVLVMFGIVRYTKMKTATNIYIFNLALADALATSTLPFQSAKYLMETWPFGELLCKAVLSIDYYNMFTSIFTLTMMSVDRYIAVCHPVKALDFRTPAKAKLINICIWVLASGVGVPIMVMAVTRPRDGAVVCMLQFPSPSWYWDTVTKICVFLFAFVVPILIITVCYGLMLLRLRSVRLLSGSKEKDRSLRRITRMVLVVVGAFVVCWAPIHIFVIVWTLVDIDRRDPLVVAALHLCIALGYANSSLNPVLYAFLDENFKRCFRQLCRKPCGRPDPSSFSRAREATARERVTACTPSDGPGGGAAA

Mu-type opioid receptor = Mu-type opioid receptor (Homo sapiens, UniProt P35372); assay: Late-stage results from the probe development effort to identify antagonists of OPRK1: luminescence-based cell-based dose response OPRM1 counterscreen.; assay type: functional
Chain of Mu-type opioid receptor (P35372 whole entry): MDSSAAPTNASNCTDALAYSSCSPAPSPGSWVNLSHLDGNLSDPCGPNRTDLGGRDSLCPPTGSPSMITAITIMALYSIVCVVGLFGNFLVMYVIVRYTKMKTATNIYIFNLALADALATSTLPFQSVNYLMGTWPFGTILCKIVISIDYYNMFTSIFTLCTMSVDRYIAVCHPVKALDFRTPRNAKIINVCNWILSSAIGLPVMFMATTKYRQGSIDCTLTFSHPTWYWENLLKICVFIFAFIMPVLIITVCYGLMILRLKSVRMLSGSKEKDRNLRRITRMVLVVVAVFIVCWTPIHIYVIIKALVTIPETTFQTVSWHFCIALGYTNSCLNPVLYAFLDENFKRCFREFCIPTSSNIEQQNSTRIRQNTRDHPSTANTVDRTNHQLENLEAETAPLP

[31] = Shn3 3'UTR reporter signal decrease – cell-based, Clone20 osteoblasts, firefly luciferase, cherry-pick, set 2, Schnurri-3 inhibitor project, dose response (AID 720490); assay type: functional;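 further: actives lower the luminescence signal as inhibitors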
[32] = toxicity toward immortalized ovarian surface epithelium – cell-based, plate reader, dry powder samples, cytotoxicity control for PAX8 inhibitor project, dose response (AID 743045); assay type: functional
[33] = A2780 cell killing – plate reader, dry powder samples, cytotoxicity control, dose response (AID 743046); assay type: functional, cell-based
[34] = OVCAR-3 cell viability loss – plate reader, dry powder samples, PAX8 inhibitor project, dose response (AID 743044); assay type: functional, cell-based
[35] = IGROV1 cell killing – plate reader, dry powder samples, PAX8 inhibitor project, dose response (AID 743043); assay type: functional, cell-based; conditions: IGROV-1
[36] = general cell-killing toxicity readout – plate reader, dry powder samples, cytotoxicity control for PAX8 inhibitor project, dose response (AID 743021); assay type: functional, cell-based
[37] = P. falciparum Dd2 growth inhibitors, dose response, SYBR Green, cherry-picked samples (AID 1159567); assay type: functional, cell-based
[38] = toxicity to human hepatoma HepG2 cells – cell-based, cherry-picked samples, cytotoxicity control, dose response (AID 1159577); assay type: functional

SMILES: COc1ccc(-c2oc3ncnc(NCCCN4CCOCC4)c3c2-c2ccc(OC)cc2)cc1
- IC50 [1]: 0.898 µM (active)
- IC50 [2]: > 16 µM (inactive)
- CC50 [3]: 24.8 µM (active)
- AC50 [4]: 1.51 µM (active)

SMILES: CCOC(=O)c1oc2ccc(S(=O)(=O)n3nc(-c4ccccc4)cc3N)cc2c1C
- IC50 [1]: 1.08 µM (active)
- IC50 [2]: 1.01 µM (active)
- AC50 [5]: 0.854 µM (active)
- AC50 [6]: 56.8 µM (active)
- AC50 [7]: 7.82 µM (active)
- AbsAC35_uM [8]: 31.08 µM

SMILES: O=C(COc1ccc(Cl)cc1Cl)N1CCCN(C(=O)COc2ccc(Cl)cc2Cl)CC1
- EC50 [9]: > 150 µM (inactive)
- EC50 [10]: 2.18 µM (active)
- EC50 [11]: 1.39 µM (active)
- EC50 [12]: > 30 µM (not active)
- AC50 [13]: 3.52 µM (active)
- AC50 [14]: 68.3 µM (active)
- AC50 [15]: 3.44 µM (active)
- AC50 [16]: 5.48 µM (active)
- AC50 [17]: 3.24 µM (active)

SMILES: CS(=O)(=O)N1c2ccccc2CCC1C(=O)Nc1ccccn1 (stereo not given)
- EC50 [18]: 0.944 µM

SMILES: Cc1c(C(=O)O)sc2nc(CSc3ncc(C(F)(F)F)cc3Cl)nc(O)c12
- AC50 [19]: > 52 µM (inactive)

SMILES: COc1cccc(-c2cn(CC[C@@H]3CC[C@@H](NC(C)=O)[C@H](CO)O3)nn2)c1
- AC50 (HeLa): > 52 µM (inactive)

SMILES: CCc1c(C)c2cc(Cl)c(O)c(CN(CC)CC)c2oc1=O
- IC50 (Aminopeptidase N): 34.6 µM (active)
- AC50 [20]: 6.85 µM (active)

SMILES: CCCC#Cc1ccc([C@@H]2[C@@H](C#N)N(C(=O)C3CCCCC3)[C@H]2CO)cc1
- AC50 (Paired box protein Pax-8): 6.02 µM (active)
- AC50 [21]: 14.1 µM (active)
- AC50 [22]: 41.8 µM (active)
- AC50 [23]: 18.3 µM (active)
- AC50 [24]: 34.5 µM (active)
- AC50 [25]: 36 µM (active)
- AC50 [26]: 51 µM (active)
- AC50 [27]: 31 µM (active)

SMILES: Cc1cc(C(=O)N/N=C/c2cc(Br)ccc2OC(=O)c2ccccc2)[nH]n1
- AC50 (INS1): 1.91 µM (active)
- AC50 [28]: 43.1 µM (active)
- AC50 [29]: 16.6 µM (active)

SMILES: COC(=O)c1cc(Br)cnc1N1CCC(NC2CCC(C)CC2)CC1 (stereo not given)
- IC50 [30]: 18 µM (inactive)
- IC50 (Mu-type opioid receptor): 8.6 µM (active)

SMILES: CCOC(=O)N1CCN(c2ccc(S(=O)(=O)N(Cc3ccccc3)Cc3ccccc3)cn2)CC1
- AC50 [5]: 2.59 µM (active)
- AC50 [6]: 45 µM (active)
- AC50 [7]: 34.3 µM (active)
- AC50 [31]: 2.09 µM (active)

SMILES: COc1ccc(C#Cc2ccc([C@@H]3[C@H](CO)N4CCCCN(C(=O)Nc5cccc(F)c5)C[C@@H]34)cc2)cc1
- AC50 (Paired box protein Pax-8): 9.89 µM (active)
- AC50 [32]: 16.3 µM (active)
- AC50 [33]: 15.3 µM (active)
- AC50 [34]: 10 µM (active)
- AC50 [35]: 10.5 µM (active)
- AC50 [36]: 40.6 µM (active)
- AC50 [26]: 18.1 µM (active)
- AC50 [37]: 1.43 µM (active)
- AC50 [38]: 6.45 µM (active)
